The source of these data is patent publication US5834457A, “Method of modulating radical formation by mutant cuznsod enzymes” (The Regents of the University of California, priority 1996, dated 1998).

The nature of series [1]: Hydroxyl radical production from H2O2 by the enzymes or free copper, EPR of DMPO-OH adduct. To be noted: for hydroxyl radical production (double integration of DMPO-OH signal): 1.25 μM protein or 2.5 μM CuSO4, 45 mM DMPO, 30 mM H2O2, pH 7.4. The format is biochemical. The protocol: Hydroxyl radical formation by mutant and wild type CuZnSODs was determined by measuring the amount of adduct formed when the radical scavenging agent 5,5'-dimethyl-1-pyrroline N-oxide (DMPO) was added to the hydroxyl radical forming reaction. The amount of the DMPO-OH radical adduct formed was determined by measurement of the unique EPR spectra signals of the adduct.
30 mM hydrogen peroxide was injected to start the reaction. […] EPR spectra were recorded on a Bruker ER 200 D at room temperature, operated at 9.5 GHz with a modulation frequency of 100 KHz.
The samples were prepared and handled, and all measurements executed, in a strictly oxygen-free atmosphere, to prevent radical scavenging by molecular oxygen. Buffers were treated with Chelex 100 (Biorad) to eliminate the possibility of contamination by trace metals. […] An aqueous flat cell (Wilmad) was used to hold the samples.

Series [2] concerns CSM 14.1 cells expressing mutant CuZnSODs A4V, G37R, G41D, G85R. Kind of series: Neural cell culture model of FALS: apoptosis/viability after serum withdrawal. The format is cell-based, rat. To be noted: DDC 25-100 μM, all four mutants. The protocol: (§1) The conditionally-immortalized rat nigral neural cell line CSM 14.1 (M. Durand, et al., Soc. Neurosci. Abs. 16:40 (1990); and L. T. Zhong, et al., Proc. Natl. Acad. Sci. U.S.A. 90:4533 (1993)) was transfected with vectors carrying wild type CuZnSOD or the mutant CuZnSODs A4V, G37R, G41D, or G85R.
(§2) Next the […] efficacy of DDC was tested. Temperature-sensitive nigral neural cells (SCM 14.1) were transfected with wild type and A4V, G37R, G85R, and G41D mutant CuZnSOD constructs by methods described previously (Rabizadeh (1995), supra). Following selection in puromycin (7 μg/ml), cells were plated onto 96-well plates.
(§3) This was calculated as follows:
(§4) viability=[Vm(x)-Vm(0)]/[Vc(0)-Vm(0)]
(§5) Standard errors were computed by the delta method for computing the asymptotic standard error for the estimate of a nonlinear function (D. Colquhoun, Lectures on Biostatistics (Clarendon Press, 1971) pp. 39-42).

For series [3], the system named is CSM 14.1 cells overexpressing wild type CuZnSOD. Described as above. Format: cell-based, rat. The protocol:
as §1, §2, §3, §4, §5

The test system of a further series is CSM 14.1 cells. Kind of series: Toxicity of DDC in transfected neural cells, all groups. The format is cell-based, rat. The conditions noted are these: DDC 1 mM or greater. Here is the method: as §1, §2

As for “wild type CuZnSOD: recombinant human wild type copper-zinc superoxide dismutase expressed in Saccharomyces cerevisiae”, the “hydroxyl radical production (double integration of DMPO-OH signal)” value (“hydroxyl radical production” for short) in series [1] was 3.2 µM.

For the molecule “CuZnSOD mutant G93A: FALS-associated mutant human CuZnSOD G93A, recombinant, expressed in yeast”, the “hydroxyl radical production” value in series [1] was 6.5 µM.

Turning to `O=S(=O)([O-])[O-].[Cu+2]` [CuSO4], the “hydroxyl radical production” value in series [1] is 1.9 µM.

Consider `CCN(CC)C(=S)S` [DDC, Diethyldithiocarbamate], for which the “inhibition of apoptosis induced by mutant CuZnSODs” value in series [2] is 30-70%. The effect on viability result in series [3] (DDC 100 μM, 60 hours, serum-free media) is reported as “no significant effect”. Further, the “effect on cell viability” value in series [3] (DDC 500 μM) was “decreased the viability”. For the same molecule, the effect on apoptosis entry in series [3] (DDC 25-100 μM, serum withdrawal) is recorded as “no effect”. In addition, in the series with CSM 14.1 cells, the “toxicity in all groups” value was “toxic”.

As for “CuZnSOD mutant A4V: FALS-associated mutant human CuZnSOD A4V, recombinant, expressed in yeast”, the “hydroxyl radical production” value in series [1] was 15.6 µM. For the same molecule, the “DMPO-OH signal relative to the wild type CuZnSOD signal” value in series [1] (fully metallated enzyme, mean ± spread) is reported as 3.0±1.1 times. Moreover, the “range of DMPO-OH signal relative to the wild type CuZnSOD signal” value in series [1] (fully metallated enzyme, range over experiments) is on record as 2.1-5.7 times.
